Data on 17 compounds can be found in patent US9850247B2 (Almac Discovery Limited, priority 2013, dated 2017).

One data set deals with T1, Wee-1 kinase (Homo sapiens, UniProt P30291).
T1 construct: purchased Invitrogen PV3817
Put plainly: Measurement of Wee-1 kinase activity (ADP-Glo luminescent kit). It is filed as biochemical. In short, it runs like this:
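Activated Wee-1 was pre-incubated 30 min at RT with compound in 40 mM Tris-HCl, 20 mM MgCl2, 0.1 mg/mL BSA and 2 mM DTT. The reaction was started with an aliquot of 2.0 μg/mL poly(Lys,Tyr 4:1) plus 30 μM ATP and run 1 h at RT. ADP-Glo luminescence gave IC50 by non-linear fit.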
Background: ADP-Glo turns the ADP formed in a reaction into a luminescent signal.

For data set [1], the system named is phospho-cdc2 (Tyr15) in HT-29 cells. Put plainly: Effect on phosphorylation of cdc2 at Tyr15, PathScan ELISA (Method 2). The data set is classed as cell-based. As to conditions: Homo sapiens, 8 h, eight hours incubation, read-out: HT29 pCDC2 method 2. As to the method:
Method 2: Determining the Effect of Compounds on the phosphorylation of cdc2 at Tyr15
The colorectal cancer cell lines HT-29 and HCT-116 were purchased from the ATCC and routinely maintained in McCoy's Medium (Invitrogen) supplemented with 10% Foetal Calf Serum.
The cells were trypsinised from their growing vessel and counted, 100 μL of cell suspension containing 6000 cells was pipetted into black 96 well Co-star plates and incubated overnight to allow adherence to the surface at a temperature of 37° C. and an atmosphere of 5% CO2. Test compounds were formulated in DMSO and diluted in foetal calf serum supplemented medium. Incubating medium was removed by aspiration and diluted drug supplemented medium added to each well.
The plate was returned to the incubator for an additional eight hours at 37° C. and an atmosphere of 5% CO2. Post incubation, the drug supplemented medium was aspirated from each well and the cells were washed once in ice-cold phosphate buffered saline (PBS). 100 μL of cell lysis buffer (Cell Signalling Technologies #9803) containing 20 mM Tris, 150 mM NaCl, 1 mM EDTA, 1 mM EGTA, 1% Triton-X100, 2.5 mM sodium pyrophosphate, 1 mM glycerophosphate, 1 mM Na3VO4 and 1 μg/mL leupeptin was added to each well of the 96 well plate and incubated at 4° C. for 30 min. The samples on the plate were snap frozen at −80° C. until required. Immediately before the continuation of the assay, the sample plate was thawed and centrifuged at 4° C. for 10 min and the supernatant transferred to secondary tubes or 96 well plate.
Cell supernatant was mixed in a ratio of 1:1 with sample dilutent buffer and vortexed for one minute. 100 μL of diluted sample was pipetted into pre-coated plates containing a rabbit polyclonal antibody for phospho-cdc2 (Tyr15) (Cell Signalling Technologies PathScan kit #7176). The plate was sealed and incubated overnight at 4° C.
The plate seal was removed and the well contents aspirated, followed by 3×5 min washes with 200 μL of diluted wash buffer. Between each wash the plate was tapped firmly onto blotting paper to ensure the removal of all kit solution. 100 μL of kit detection antibody was added to each well and the plate re-sealed and incubated at 37° C. for 1 h. Post incubation the plate was washed and processed in a similar manner to that previously described.
100 μL of horseradish peroxidise-linked secondary antibody was added to each test well, the plate sealed and incubated for thirty minutes at 37° C. Post incubation, the plate was washed as previously stated, followed by the addition of 100 μL of 3,3′,5,5′ tetramethylbenzidine (TMB reagent). The plate was sealed and incubated at RT for 30 min.
100 μL of stop solution was added to each well and the underside of the plate wiped with a lint-free tissue, prior to spectrophotometric determination. Absorbance from each well was read at 450 nm within 30 min of the addition of the stop solution.
The percentage of phospho-cdc2 was calculated compared to DMSO control and plotted versus the concentration of inhibitor using GraphPad Prism. Data was fitted using non-linear regression analysis and IC50 values generated.
(An ELISA detects its analyte on a solid surface through an enzyme-linked reagent.)

Data set [2] in a line: CLint estimates using human liver microsomes (Method 4). The data set is classed as in vitro ADME. As to conditions: pH 7.4, 1 μM compound, read-out: Mics - CLint (HLM CLint). In short, it runs like this:
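Compound at 1 μM (0.1% DMSO) incubated with human liver microsomes (0.5 mg protein/mL) in 0.1 M phosphate pH 7.4 at 37 °C, started with 1 mM NADPH. Samples taken 2–50 min, quenched in methanol, measured by LC/MS/MS (MRM). Half-life and CLint derived from the slope of ln peak area versus time.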

T1 sequence (P30291 whole entry): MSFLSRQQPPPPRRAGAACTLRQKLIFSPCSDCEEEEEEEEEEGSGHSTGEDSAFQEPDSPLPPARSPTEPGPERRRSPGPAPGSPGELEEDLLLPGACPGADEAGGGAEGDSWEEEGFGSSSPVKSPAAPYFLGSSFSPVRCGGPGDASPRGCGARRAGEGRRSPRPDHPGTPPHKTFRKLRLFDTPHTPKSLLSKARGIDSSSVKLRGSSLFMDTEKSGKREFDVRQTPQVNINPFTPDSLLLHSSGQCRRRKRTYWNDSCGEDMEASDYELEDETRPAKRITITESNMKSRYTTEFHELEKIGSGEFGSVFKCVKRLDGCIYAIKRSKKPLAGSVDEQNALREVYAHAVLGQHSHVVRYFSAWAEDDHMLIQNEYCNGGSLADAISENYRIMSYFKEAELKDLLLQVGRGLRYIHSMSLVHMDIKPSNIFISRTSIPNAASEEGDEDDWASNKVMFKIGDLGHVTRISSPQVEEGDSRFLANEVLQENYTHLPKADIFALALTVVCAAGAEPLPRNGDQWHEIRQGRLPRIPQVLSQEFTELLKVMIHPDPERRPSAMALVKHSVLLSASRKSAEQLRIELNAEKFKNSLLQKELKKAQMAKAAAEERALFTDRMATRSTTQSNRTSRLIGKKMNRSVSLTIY

In the case of `Cc1cc(Nc2ncc3c(n2)N(C)CN(c2c(Cl)cccc2Cl)C3=O)ccc1N1CCNCC1` [Example 6, 3-(2,6-Dichlorophenyl)-1-methyl-7-((3-methyl-4-(piperazin-1-yl)phenyl)amino)-2,3-dihydropyrimido[4,5-d]pyrimidin-4(1H)-one], the IC50 at Wee-1 kinase is at most 0.01 µM; in data set [1], at most 0.1 µM. In addition, the microsomal CLint at 1 μM in data set [2] is 15 to 50 µL/min/mg.
In the same order, the values of `COc1cc(Nc2ncc3c(n2)N(C)CN(c2c(Cl)cccc2Cl)C3=O)ccc1N1CCNCC1` [Example 3, 3-(2,6-Dichlorophenyl)-7-((3-methoxy-4-(piperazin-1-yl)phenyl)amino)-1-methyl-2,3-dihydropyrimido[4,5-d]pyrimidin-4(1H)-one] are at most 0.01 µM, 0.1 to 1 µM and 15 to 50 µL/min/mg.
In the case of `C[C@@H]1CN(c2ccc(Nc3ncc4c(n3)N(C)CN(c3c(F)cccc3Cl)C4=O)cc2)CCN1` [Example 53, (R)-3-(2-chloro-6-fluorophenyl)-1-methyl-7-((4-(3-methylpiperazin-1-yl)phenyl)amino)-2,3-dihydropyrimido[4,5-d]pyrimidin-4(1H)-one], the IC50 at Wee-1 kinase was 0.01 to 0.1 µM; in data set [1], at most 0.1 µM. The microsomal CLint at 1 μM in data set [2] is at most 15 µL/min/mg.
In the case of `COC[C@H]1CN(c2ccc(Nc3ncc4c(n3)N(C)CN(c3c(Cl)cccc3Cl)C4=O)cc2)CCN1` [Example 60, (R)-3-(2,6-dichlorophenyl)-7-((4-(3-(methoxymethyl)piperazin-1-yl)phenyl)amino)-1-methyl-2,3-dihydropyrimido[4,5-d]pyrimidin-4(1H)-one], the IC50 on Wee-1 kinase is 0.01 to 0.1 µM; in data set [1], at most 0.1 µM. Also, the microsomal CLint at 1 μM in data set [2] was at most 15 µL/min/mg.
The matching figures for `C[C@H]1CN(c2ccc(Nc3ncc4c(n3)N(C)CN(c3c(Cl)cccc3Cl)C4=O)cc2)CCN1` [Example 17, (S)-3-(2,6-Dichlorophenyl)-1-methyl-7-((4-(3-methylpiperazin-1-yl)phenyl)amino)-2,3-dihydropyrimido[4,5-d]pyrimidin-4(1H)-one]: 0.01 to 0.1 µM, at most 0.1 µM and 15 to 50 µL/min/mg.
Turning to `C[C@@H]1CN(c2ccc(Nc3ncc4c(n3)N(C)CN(c3c(Cl)cccc3Cl)C4=O)cc2)CCN1` [Example 16, (R)-3-(2,6-Dichlorophenyl)-1-methyl-7-((4-(3-methylpiperazin-1-yl)phenyl)amino)-2,3-dihydropyrimido[4,5-d]pyrimidin-4(1H)-one], the IC50 is at most 0.01 µM on Wee-1 kinase and at most 0.1 µM in data set [1]. Moreover, the microsomal CLint at 1 μM in data set [2] is at most 15 µL/min/mg.
In the same order, the values of `[2H]C1([2H])N(C)c2nc(Nc3ccc(N4CCNCC4)cc3)ncc2C(=O)N1c1c(Cl)cccc1Cl` [Example 15, 3-(2,6-Dichlorophenyl)-2,2-dideutero-1-methyl-7-((4-(piperazin-1-yl)phenyl)amino)-2,3-dihydropyrimido[4,5-d]pyrimidin-4(1H)-one] are at most 0.01 µM, at most 0.1 µM and at most 15 µL/min/mg.
Take `Cc1cc(Nc2ncc3c(n2)N(C)CN(c2c(Cl)cccc2Cl)C3=O)ccc1C1CCNCC1` [Example 18, 3-(2,6-Dichlorophenyl)-1-methyl-7-((3-methyl-4-(piperidin-4-yl)phenyl)amino)-2,3-dihydropyrimido[4,5-d]pyrimidin-4(1H)-one]: the IC50 was at most 0.01 µM on Wee-1 kinase and 0.1 to 1 µM in data set [1]. For the same compound, the microsomal CLint at 1 μM in data set [2] is at most 15 µL/min/mg.
In the case of `CNCc1cc(Nc2ncc3c(n2)N(C)CN(c2c(Cl)cccc2Cl)C3=O)ccc1N1CCOCC1` [Example 5, 3-(2,6-Dichlorophenyl)-1-methyl-7-((3-((methylamino)methyl)-4-morpholinophenyl)amino)-2,3-dihydropyrimido[4,5-d]pyrimidin-4(1H)-one], the IC50 on Wee-1 kinase was at most 0.01 µM; in data set [1] it was 0.1 to 1 µM. Besides, in data set [2], the microsomal CLint at 1 μM is at most 15 µL/min/mg.
`CN1CN(c2c(Cl)cccc2Cl)C(=O)c2cnc(Nc3ccc(N4CCNCC4)cc3)nc21` [Example 1, 3-(2,6-Dichlorophenyl)-1-methyl-7-((4-(piperazin-1-yl)phenyl)amino)-2,3-dihydropyrimido[4,5-d]pyrimidin-4(1H)-one]: the IC50 at Wee-1 kinase is at most 0.01 µM; in data set [1], 0.1 to 1 µM. In data set [2], the microsomal CLint at 1 μM is 15 to 50 µL/min/mg.
For `CN1CN(c2c(Cl)cccc2Cl)C(=O)c2cnc(Nc3ccc(N4CCN[C@@H](CO)C4)cc3)nc21` [Example 19, (R)-3-(2,6-Dichlorophenyl)-7-((4-(3-(hydroxymethyl)piperazin-1-yl)phenyl)amino)-1-methyl-2,3-dihydropyrimido[4,5-d]pyrimidin-4(1H)-one], the IC50 was at most 0.01 µM on Wee-1 kinase and 0.1 to 1 µM in data set [1]. Further, in data set [2], the microsomal CLint at 1 μM is at most 15 µL/min/mg.
Regarding `C[C@@H]1CN(c2ccc(Nc3ncc4c(n3)N(C)CN(c3c(Cl)cccc3Cl)C4=O)cc2F)CCN1` [Example 43, (R)-3-(2,6-dichlorophenyl)-7-((3-fluoro-4-(3-methylpiperazin-1-yl)phenyl)amino)-1-methyl-2,3-dihydropyrimido[4,5-d]pyrimidin-4(1H)-one], the IC50 was at most 0.01 µM on Wee-1 kinase and 0.1 to 1 µM in data set [1]. Moreover, the microsomal CLint at 1 μM in data set [2] was at most 15 µL/min/mg.
In the same order, the values of `COCc1cc(Nc2ncc3c(n2)N(C)CN(c2c(Cl)cccc2Cl)C3=O)ccc1N1CCN[C@H](C)C1` [Example 59, (R)-3-(2,6-dichlorophenyl)-7-((3-(methoxymethyl)-4-(3-methylpiperazin-1-yl)phenyl)amino)-1-methyl-2,3-dihydropyrimido[4,5-d]pyrimidin-4(1H)-one] are 0.01 to 0.1 µM, 0.1 to 1 µM and at most 15 µL/min/mg.
The matching figures for `CN1CCc2ccc(Nc3ncc4c(n3)N(C)CN(c3c(Cl)cccc3Cl)C4=O)cc2C1` [Example 22, 3-(2,6-Dichlorophenyl)-1-methyl-7-((2-methyl-1,2,3,4-tetrahydroisoquinolin-7-yl)amino)-2,3-dihydropyrimido[4,5-d]pyrimidin-4(1H)-one]: at most 0.01 µM, at most 0.1 µM and 15 to 50 µL/min/mg.
Regarding `CN1CN(c2c(Cl)cccc2Cl)C(=O)c2cnc(Nc3ccc(N4CCN(C(=O)CN)CC4)cc3)nc21` [Example 13, 7-((4-(4-(2-Aminoacetyl)piperazin-1-yl)phenyl)amino)-3-(2,6-dichlorophenyl)-1-methyl-2,3-dihydropyrimido[4,5-d]pyrimidin-4(1H)-one], the IC50 at Wee-1 kinase was at most 0.01 µM; in data set [1] it was 0.1 to 1 µM. Also, the microsomal CLint at 1 μM in data set [2] is at most 15 µL/min/mg.
In the same order, the values of `CNCCOc1ccc(Nc2ncc3c(n2)N(C)CN(c2c(Cl)cccc2Cl)C3=O)cc1` [Example 2, 3-(2,6-Dichlorophenyl)-1-methyl-7-((4-(2-(methylamino)ethoxy)phenyl)amino)-2,3-dihydropyrimido[4,5-d]pyrimidin-4(1H)-one] are at most 0.01 µM, 0.1 to 1 µM and at most 15 µL/min/mg.
In the same order, the values of `CC(C)N1CCN(c2ccc(Nc3ncc4c(n3)N(C)CN(c3c(Cl)cccc3Cl)C4=O)cc2CO)CC1` [Example 21, 3-(2,6-Dichlorophenyl)-7-((3-(hydroxymethyl)-4-(4-isopropylpiperazin-1-yl)phenyl)amino)-1-methyl-2,3-dihydropyrimido[4,5-d]pyrimidin-4(1H)-one] are 0.01 to 0.1 µM, at most 0.1 µM and 15 to 50 µL/min/mg.
